ChEMBL document CHEMBL1154556, “Siamenol, a new carbazole alkaloid from Murraya siamensis” (J Nat Prod, 2000)
≈ marks a conversion by molar mass, not a printed value. Calls of active or inactive are those of the source. No cut-off for these calls is given here.

Tests used:
[1] = tested on: Human immunodeficiency virus; experiment: Antiviral activity against HIV; assay type: functional, organism-based
[2] = tested on: Human immunodeficiency virus; experiment: Antiviral activity against HIV assessed as protection against viral infection by XTT-tetrazolium method; assay type: functional

EC50 ([1]; Human immunodeficiency virus 1)	IC50 ([1]; Human immunodeficiency virus 1)	Compound	Activity [1]	Activity [2]
8.6 µg/mL (≈ 25.8 µM)	23 µg/mL (≈ 69 µM)	CC(C)=CCC/C(C)=C/Cc1c(O)c(C)cc2c1[nH]c1ccccc12 [MAHANIMBILOL]	–	–
–	–	CC(C)=CCCC1(C)C=Cc2c(c(C)cc3c2[nH]c2ccccc23)O1 (stereo not given)	inactive	–
2.6 µg/mL (≈ 9.8 µM)	–	CC(C)=CCc1cc2c(cc1O)[nH]c1ccc(C)cc12 [SIAMENOL]	–	50%
